Source: patent US9206156B2, “Substituted indole derivatives” (GRÜNENTHAL GMBH, priority 2008, dated 2015)

Assays:
ORL1 receptor = target: T1, ORL1 receptor (Homo sapiens, UniProt P41146); assay: ORL1 receptor binding assay with 3H-nociceptin/orphanin FQ (WGA-SPA beads); conditions: c=1 μM test substance; 0.5 nM 3H-nociceptin/orphanin FQ; membranes of recombinant CHO-ORL1 cells
T1 construct: expressed in transfected cells; host or cells: CHO (recombinant CHO-ORL1 cells), membranes
In short: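 Radioligand displacement on membranes from recombinant CHO-ORL1 cells, 0.5 nM 3H-nociceptin/orphanin FQ, 20 μg membrane protein per batch in 50 mM Hepes pH 7.4, 10 mM MgCl2, 1 mM EDTA. Incubated 1 h at room temperature with WGA-SPA beads, scintillation read. Reported as Ki (nM) or % inhibition at 1 μM.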

human μ-opiate receptor = target: T2, human μ-opiate receptor (Homo sapiens, UniProt P35372); assay: μ-opiate receptor binding assay with [3H] naloxone (WGA-SPA beads); conditions: 1 μmol/l test substance, 1 nmol/l [3H] naloxone, CHO-K1 cell membranes expressing human μ-opiate receptor
T2 construct: purchased NEN, Zaventem, Belgium RB-HOM; host or cells: CHO-K1 cells (membrane preparation)
T2 sequence (P35372 whole entry): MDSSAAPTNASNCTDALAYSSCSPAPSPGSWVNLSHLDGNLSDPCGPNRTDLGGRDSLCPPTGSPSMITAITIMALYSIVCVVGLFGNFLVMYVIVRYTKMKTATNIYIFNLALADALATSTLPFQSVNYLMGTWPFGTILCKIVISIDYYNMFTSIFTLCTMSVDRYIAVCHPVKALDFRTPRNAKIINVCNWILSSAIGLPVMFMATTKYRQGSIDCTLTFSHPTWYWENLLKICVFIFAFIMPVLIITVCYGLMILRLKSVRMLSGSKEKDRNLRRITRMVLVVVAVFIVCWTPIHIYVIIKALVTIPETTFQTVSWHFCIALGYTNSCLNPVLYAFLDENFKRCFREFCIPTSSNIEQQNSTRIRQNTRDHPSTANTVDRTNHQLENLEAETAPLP
In short: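 CHO-K1 membranes expressing human μ-opiate receptor incubated 90 min at room temperature with 1 nmol/l [3H]naloxone and WGA-SPA beads in 50 mmol/l Tris-HCl with 0.05% azide, 0.06% BSA. Non-specific binding with 25 μmol/l naloxone; % inhibition at 1 μmol/l, or IC50 converted to Ki via Cheng-Prusoff.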

T1 sequence (P41146 whole entry): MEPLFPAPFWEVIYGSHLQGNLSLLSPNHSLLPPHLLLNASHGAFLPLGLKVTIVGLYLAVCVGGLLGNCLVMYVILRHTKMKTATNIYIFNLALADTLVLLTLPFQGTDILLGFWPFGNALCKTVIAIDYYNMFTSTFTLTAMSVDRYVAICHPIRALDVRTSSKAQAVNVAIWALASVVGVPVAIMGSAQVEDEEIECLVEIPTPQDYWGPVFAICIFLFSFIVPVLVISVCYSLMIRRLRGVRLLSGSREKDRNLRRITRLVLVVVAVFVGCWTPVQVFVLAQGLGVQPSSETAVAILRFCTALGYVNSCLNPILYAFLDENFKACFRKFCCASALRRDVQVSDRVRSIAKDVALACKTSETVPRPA

Cc1[nH]c2ccccc2c1CN1CCCC(C(=O)N2CCC(c3ccccc3)(N(C)C)CC2)C1 (stereo not drawn) [Example 156, (4-(dimethylamino)-4-phenylpiperidin-1-yl)(1-((2-methyl-1H-indol-3-yl)methyl)piperidin-3-yl) methanone]
inhibition at 1 µM (ORL1 receptor): 39%
inhibition at 1 µM (human μ-opiate receptor): 57%

CCCCC1(N(C)C)CCN(CCN(C)Cc2cccc3cc[nH]c23)CC1 [Example 157, 1-(2-(((1H-indol-7-yl)methyl)(methy)amino)ethyl)-4-butyl-N,N-dimethylpiperidin-4-amine]
% Inhibition (ORL1) at 1 μM (ORL1 receptor): 30%
% Inhibition (μ) at 1 μM (human μ-opiate receptor): 96%

CN(C)C1(c2ccccc2)CCN(C(=O)C2CCCN(Cc3cccc4cc[nH]c34)C2)CC1 (stereo not drawn) [Example 158, (1-((1H-indol-7-yl)methyl)piperidin-3-yl)(4-(dimethylamino)-4-phenylpiperidin-1-yl)methanone]
inhibition at 1 µM (ORL1 receptor): 61%
inhibition at 1 µM (human μ-opiate receptor): 93%

CN(C)C1(c2ccccc2)CCN(C(=O)C2CCCN(Cc3cccc4[nH]ccc34)C2)CC1 (stereo not drawn) [Example 161, (1-((1H-indol-4-yl)methyl)piperidin-3-yl)(4-(dimethylamino)-4-phenylpiperidin-1-yl)methanone]
inhibition at 1 µM (ORL1 receptor): 15%
inhibition at 1 µM (human μ-opiate receptor): 66%

CN(C)C1(c2ccccc2)CCN(C(=O)CCNCc2c[nH]c3ccc(Br)cc23)CC1 [Example 162, 3-((5-bromo-1H-indol-3-yl)methylamino)-1-(4-(dimethylamino)-4-phenylpiperidin-1-yl)propan-1-one]
inhibition at 1 µM (ORL1 receptor): 63%
inhibition at 1 µM (human μ-opiate receptor): 80%

CN(C)C1(c2cccs2)CCN(C(=O)CC(NCc2c[nH]c3ccc(Br)cc23)c2ccccc2)CC1 (stereo not drawn) [Example 163, 3-((5-bromo-1H-indol-3-yl)methylamino)-1-(4-(dimethylamino)-4-(thiophen-2-yl)piperidin-1-yl)-3-phenylpropan-1-one]
inhibition at 1 µM (ORL1 receptor): 55%
inhibition at 1 µM (human μ-opiate receptor): 87%

CN(C)C1(c2cccs2)CCN(C(=O)CC(NCc2c[nH]c3ccccc23)c2ccccc2)CC1 (stereo not drawn) [Example 164, 3-((1H-indol-3-yl)methylamino)-1-(4-(dimethylamino)-4-(thiophen-2-yl)piperidin-1-yl)-3-phenylpropan-1-one]
inhibition at 1 µM (ORL1 receptor): 82%
inhibition at 1 µM (human μ-opiate receptor): 96%

CN(C)C1(c2cccs2)CCN(C(=O)CC(NCc2ccc3[nH]ccc3c2)c2ccccc2)CC1 (stereo not drawn) [Example 165, 3-((1H-indol-5-yl)methylamino)-1-(4-(dimethylamino)-4-(thiophen-2-yl)piperidin-1-yl)-3-phenylpropan-1-one]
inhibition at 1 µM (ORL1 receptor): 47%
inhibition at 1 µM (human μ-opiate receptor): 92%

CN(C)C1(c2ccccc2)CCN(C(=O)C2CN(Cc3ccc4[nH]ccc4c3)c3ccccc32)CC1 (stereo not drawn) [Example 166, (1-((1H-indol-5-yl)methyl)indolin-3-yl)(4-(dimethylamino)-4-phenylpiperidin-1-yl)methanone]
inhibition at 1 µM (ORL1 receptor): 40%
inhibition at 1 µM (human μ-opiate receptor): 77%

Cc1[nH]c2ccccc2c1CNCCC(=O)N1CCC(c2ccccc2)(N(C)C)CC1 [Example 167, 1-(4-(dimethylamino)-4-phenylpiperidin-1-yl)-3-((2-methyl-1H-indol-3-yl)methylamino)propan-1-one]
inhibition at 1 µM (ORL1 receptor): 65%
inhibition at 1 µM (human μ-opiate receptor): 86%

Cc1[nH]c2ccccc2c1CNC(CC(=O)N1CCC(c2cccs2)(N(C)C)CC1)c1ccccc1 (stereo not drawn) [Example 168, 1-(4-(dimethylamino)-4-(thiophen-2-yl)piperidin-1-yl)-3-((2-methyl-1H-indol-3-yl)methylamino)-3-phenylpropan-1-one]
inhibition at 1 µM (ORL1 receptor): 73%
inhibition at 1 µM (human μ-opiate receptor): 92%

CN(C)C1(c2cccs2)CCN(C(=O)CC(NCc2ccc3cc[nH]c3c2)c2ccccc2)CC1 (stereo not drawn) [Example 169, 3-((1H-indol-6-yl)methylamino)-1-(4-(dimethylamino)-4-(thiophen-2-yl)piperidin-1-yl)-3-phenylpropan-1-one]
inhibition at 1 µM (ORL1 receptor): 54%
inhibition at 1 µM (human μ-opiate receptor): 91%

CN(C)C1(c2ccccc2)CCN(C(=O)C2CN(Cc3ccc4cc[nH]c4c3)c3ccccc32)CC1 (stereo not drawn) [Example 170, (1-((1H-indol-6-yl)methyl)indolin-3-yl)(4-(dimethylamino)-4-phenylpiperidin-1-yl)methanone]
inhibition at 1 µM (ORL1 receptor): 38%
inhibition at 1 µM (human μ-opiate receptor): 80%

CN(C)C1(c2ccccc2)CCN(C(=O)CCNCc2cccc3cc[nH]c23)CC1 [Example 171, 3-((1H-indol-7-yl)methylamino)-1-(4-(dimethylamino)-4-phenylpiperidin-1-yl)propan-1-one]
inhibition at 1 µM (ORL1 receptor): 73%
inhibition at 1 µM (human μ-opiate receptor): 97%

CN(C)C1(c2cccs2)CCN(C(=O)CNCc2cccc3cc[nH]c23)CC1 [Example 172, 2-((1H-indol-7-yl)methylamino)-1-(4-(dimethylamino)-4-(thiophen-2-yl)piperidin-1-yl)ethanone]
inhibition at 1 µM (ORL1 receptor): 67%
inhibition at 1 µM (human μ-opiate receptor): 96%

CN(C)C1(c2cccs2)CCN(C(=O)CC(NCc2cccc3cc[nH]c23)c2ccccc2)CC1 (stereo not drawn) [Example 173, 3-((1H-indol-7-yl)methylamino)-1-(4-(dimethylamino)-4-(thiophen-2-yl)piperidin-1-yl)-3-phenylpropan-1-one]
inhibition at 1 µM (ORL1 receptor): 74%
inhibition at 1 µM (human μ-opiate receptor): 96%

CN(C)C1(c2cccs2)CCN(C(=O)CC(NCc2cccc3[nH]ccc23)c2ccccc2)CC1 (stereo not drawn) [Example 174, 3-((1H-indol-4-yl)methylamino)-1-(4-(dimethylamino)-4-(thiophen-2-yl)piperidin-1-yl)-3-phenylpropan-1-one]
inhibition at 1 µM (ORL1 receptor): 68%
inhibition at 1 µM (human μ-opiate receptor): 92%

CN(C)C1(c2ccccc2)CCN(C(=O)C2CN(Cc3cccc4[nH]ccc34)c3ccccc32)CC1 (stereo not drawn) [Example 175]
% Inhibition (ORL1) at 1 μM (ORL1 receptor): 10%
% Inhibition (μ) at 1 μM (human μ-opiate receptor): 70%

COc1ccc2c(CN3CCCC(C(=O)N4CCC(c5ccccc5)(N(C)C)CC4)C3)c(C)n(C)c2c1 (stereo not drawn) [Example 176, (4-(dimethylamino)-4-phenylpiperidin-1-yl)(1-((6-methoxy-1,2-dimethyl-1H-indol-3-yl)methyl)piperidin-3-yl)methanone]
inhibition at 1 µM (ORL1 receptor): 53%
inhibition at 1 µM (human μ-opiate receptor): 61%

CN(C)C1(c2ccccc2)CCN(C(=O)C2CCCN(Cc3c(-c4ccc(F)cc4)[nH]c4ccccc34)C2)CC1 (stereo not drawn) [Example 177, (4-(dimethylamino)-4-phenylpiperidin-1-yl)(1-((2-(4-fluorophenyl)-1H-indol-3-yl)methyl)piperidin-3-yl)methanone]
inhibition at 1 µM (ORL1 receptor): 51%
inhibition at 1 µM (human μ-opiate receptor): 94%

CN(C)C1(c2cccs2)CCN(CCNCc2c[nH]c3ccc(Cl)cc23)CC1 [Example 178, 1-(2-((5-chloro-1H-indol-3-yl)methylamino)ethyl)-N,N-dimethyl-4-(thiophen-2-yl)piperidin-4-amine]
inhibition at 1 µM (ORL1 receptor): 99%
inhibition at 1 µM (human μ-opiate receptor): 100%

CN(C)C1(c2cccs2)CCN(CCNCc2c[nH]c3ccccc23)CC1 [Example 179, 1-(2-((1H-indol-3-yl)methylamino)ethyl)-N,N-dimethyl-4-(thiophen-2-yl)piperidin-4-amine]
inhibition at 1 µM (ORL1 receptor): 97%
inhibition at 1 µM (human μ-opiate receptor): 76%

CC(C)c1ccc2c(CN(C)CCN3CCC(c4ccccc4)(N(C)C)CC3)c[nH]c2c1 [Example 180, 1-(2-(((6-isopropyl-1H-indol-3-yl)methyl)(methyl)amino)ethyl)-N,N-dimethyl-4-phenylpiperidin-4-amine]
inhibition at 1 µM (ORL1 receptor): 96%
inhibition at 1 µM (human μ-opiate receptor): 95%

CN(CCN1CCC(c2ccccc2)(N(C)C)CC1)Cc1ccc2cc[nH]c2c1 [Example 181, 1-(2-(((1H-indol-6-yl)methyl)(methyl)amino)ethyl)-N,N-dimethyl-4-phenylpiperidin-4-amine]
inhibition at 1 µM (ORL1 receptor): 96%
inhibition at 1 µM (human μ-opiate receptor): 34%

CN(CCN1CCC(c2ccccc2)(N(C)C)CC1)Cc1c[nH]c2ccc(Cl)cc12 [Example 182, 1-(2-(((5-chloro-1H-indol-3-yl)methyl)(methy)amino)ethyl)-N,N-dimethyl-4-phenylpiperidin-4-amine]
% Inhibition (ORL1) at 1 μM (ORL1 receptor): 95%
% Inhibition (μ) at 1 μM (human μ-opiate receptor; 1 µM): 101%

CN(CCN1CCC(c2ccccc2)(N(C)C)CC1)Cc1c[nH]c2ccc(Cl)cc12 [Example 183, 1-(2-(((5-chloro-1H-indol-3-yl)methyl)(methy)amino)ethyl)-N,N-dimethyl-4-phenylpiperidin-4-amine]
% Inhibition (ORL1) at 1 μM (ORL1 receptor): 95%
% Inhibition (μ) at 1 μM (human μ-opiate receptor; 1 µM): 100%

CN(CCN1CCC(c2ccccc2)(N(C)C)CC1)Cc1ccc2cc[nH]c2c1 [Example 184, 1-(2-(((1H-indol-6-yl)methyl)(methy)amino)ethyl)-N,N-dimethyl-4-phenylpiperidin-4-amine]
% Inhibition (ORL1) at 1 μM (ORL1 receptor): 95%
% Inhibition (μ) at 1 μM (human μ-opiate receptor; 1 µM): 99%

CN(CCN1CCC(c2ccccc2)(N(C)C)CC1)Cc1c[nH]c2ccc(Br)cc12 [Example 185, 1-(2-(((5-bromo-1H-indol-3-yl)methyl)(methyl)amino)ethyl)-N,N-dimethyl-4-phenylpiperidin-4-amine]
inhibition at 1 µM (ORL1 receptor): 91%
inhibition at 1 µM (human μ-opiate receptor): 95%

CN(CCN1CCC(c2ccccc2)(N(C)C)CC1)Cc1c[nH]c2ccccc12 [Example 186, 1-(2-(((1H-indol-3-yl)methyl)(methy)amino)ethyl)-N,N-dimethyl-4-phenylpiperidin-4-amine]
% Inhibition (ORL1) at 1 μM (ORL1 receptor): 88%
% Inhibition (μ) at 1 μM (human μ-opiate receptor; 1 µM): 102%

CN(CCN1CCC(c2ccccc2)(N(C)C)CC1)Cc1c[nH]c2ccccc12 [Example 187, 1-(2-(((1H-indol-3-yl)methyl)(methy)amino)ethyl)-N,N-dimethyl-4-phenylpiperidin-4-amine]
% Inhibition (ORL1) at 1 μM (ORL1 receptor): 87%
% Inhibition (μ) at 1 μM (human μ-opiate receptor; 1 µM): 100%
